According to PubChem BioAssay AID1259408 (Genetic Toxicology Data Bank (GENE-TOX), 2018):
Active and inactive are the calls of the source. No rule for the calls is given here.

Test system: GENE-TOX genotoxicity assays, various organisms and cells
Test: GENE-TOX mutagenicity studies
Settings: for call: Assay Type: In vivo carcinogenicity studies
[1] = Species/Cell Type: Drosophila melanogaster, Assay Type: Sex-linked recessive lethal gene mutation, Assay Code: SRL+, Evaluation Type: Evaluation A (Pre-1980)
[2] = Species/Cell Type: Escherichia coli polA (W3119 vs P3478), Assay Type: Rec-assay, DNA effects (bacterial DNA repair), Assay Code: RE1+, Evaluation Type: Evaluation A (Pre-1980)
[3] = Species/Cell Type: Human lymphocytes, Assay Type: Sister-chromatid exchange (SCE) in vitro, Assay Code: SCL+D, Dose Response: With dose response, Evaluation Type: Evaluation B (Post-1980)
[4] = Species/Cell Type: Human, Assay Type: Sister-chromatid exchange (SCE) in vitro, Assay Code: SC1+D, Dose Response: With dose response, Evaluation Type: Evaluation B (Post-1980)
[5] = Species/Cell Type: Saccharomyces cerevisiae, Assay Type: Mitotic recombination or gene conversion, Assay Code: YEC+, Evaluation Type: Evaluation A (Pre-1980)
[6] = Species/Cell Type: Nonhuman, Assay Type: Sister-chromatid exchange (SCE) in vitro, Assay Code: SC2+D, Dose Response: With dose response, Evaluation Type: Evaluation B (Post-1980)
[7] = Species/Cell Type: Salmonella typhimurium (one or more of the five standard strains: TA98, TA100, TA1535, TA1537, and TA1538), Assay Type: Histidine reverse gene mutation, Ames assay, Assay Code: SALT, Evaluation Type: Evaluation A (Pre-1980)
[8] = Species/Cell Type: Saccharomyces cerevisiae, Assay Type: Mitotic recombination or gene conversion, Assay Code: YEH-, Evaluation Type: Evaluation A (Pre-1980)

Question: Which results are given for `C1OC1C1CO1` (centres undefined)?
Answer: mutagenic call (Species/Cell Type: Aspergillus nidulans, Assay Type: Forward gene mutation, Assay Code: ASF+, Evaluation Type: Evaluation A (Pre-1980)): active; positive; mutagenic call (Species/Cell Type: Aspergillus nidulans, Assay Type: Mitotic recombination, Assay Code: ASG+, Evaluation Type: Evaluation A (Pre-1980)): active; positive; mutagenic call [1]: active; positive; mutagenic call (Species/Cell Type: Drosophila melanogaster, Sex: Male, Assay Type: Heritable translocation test, chromosome aberrations, Assay Code: DHT+, Evaluation Type: Evaluation A (Pre-1980)): active; positive; mutagenic call [2]: active; positive; mutagenic call (Species/Cell Type: Fischer rat embryo (RLV/1706) cells, Assay Type: Cell transformation, viral enhanced, Assay Code: CTR+, Evaluation Type: Evaluation A (Pre-1980)): active; positive; mutagenic call (Species/Cell Type: Glycine max (soybean), Assay Type: Gene mutation, Assay Code: GLM+, Evaluation Type: Evaluation A (Pre-1980)): active; positive; mutagenic call (Species/Cell Type: Hordeum vulgare (barley), Assay Type: Chromosome aberrations, Assay Code: HOC+, Evaluation Type: Evaluation A (Pre-1980)): active; positive; mutagenic call [3]: active; positive; mutagenic call [4]: active; positive; mutagenic call (Species/Cell Type: Mouse (BALB/c-3T3) cells, Assay Type: Cell transformation, Assay Code: CTB+D, Dose Response: With dose response, Evaluation Type: Evaluation A (Pre-1980)): active; positive; mutagenic call (Species/Cell Type: Neurospora crassa, Assay Type: Forward gene mutation, Assay Code: NEF+, Evaluation Type: Evaluation A (Pre-1980)): active; positive; mutagenic call (Species/Cell Type: Neurospora crassa, Assay Type: Reverse gene mutation, Assay Code: NER+, Evaluation Type: Evaluation A (Pre-1980)): active; positive; call (Species/Cell Type: Nonhuman, Assay Code: CCG+, Evaluation Type: Evaluation A (Pre-1980)): active; positive; mutagenic call (Species/Cell Type: Nonhuman, Assay Type: Sister-chromatid exchange (SCE) in vitro, Assay Code: SC2+D, Dose Response: With dose response, Evaluation Type: Evaluation A (Pre-1980)): active; positive; mutagenic call (Species/Cell Type: Nonhuman, Assay Type: Sister-chromatid exchange (SCE) in vivo, Assay Code: SC3+D, Dose Response: With dose response, Evaluation Type: Evaluation B (Post-1980)): active; positive; mutagenic call [5]: active; positive; mutagenic call (Species/Cell Type: Saccharomyces cerevisiae, Assay Type: Mitotic recombination or gene conversion, Assay Code: YEH+, Evaluation Type: Evaluation A (Pre-1980)): active; positive; mutagenic call (Species/Cell Type: Saccharomyces cerevisiae, Assay Type: Reverse gene mutation, Assay Code: YER+, Evaluation Type: Evaluation A (Pre-1980)): active; positive; mutagenic call (Species/Cell Type: Salmonella typhimurium (one or more of the five standard strains: TA98, TA100, TA1535, TA1537, and TA1538), Assay Type: Histidine reverse gene mutation, Ames assay, Assay Code: SAL+, Evaluation Type: Evaluation A (Pre-1980)): active; positive; mutagenic call (Species/Cell Type: Salmonella typhimurium, Assay Type: Forward and reverse gene mutation, host-mediated assay, Assay Code: HMA+, Evaluation Type: Evaluation A (Pre-1980)): active; positive; mutagenic call (Species/Cell Type: Schizosaccharomyces pombe, Assay Type: Reverse gene mutation, Assay Code: YEZ+, Evaluation Type: Evaluation A (Pre-1980)): active; positive; mutagenic call (Species/Cell Type: Syrian hamster embryo (SHE) cells, Assay Type: Cell transformation, clonal assay, Assay Code: CTC+D, Dose Response: With dose response, Evaluation Type: Evaluation A (Pre-1980)): active; positive; mutagenic call (Species/Cell Type: Vicia faba, Assay Type: Chromosome aberrations, Assay Code: VIC+D, Dose Response: With dose response, Evaluation Type: Evaluation A (Pre-1980)): active; positive

Question: With `O=[N+]([O-])c1ccc(Nc2ccc(N=C=S)cc2)cc1` as the molecule, how does the mutagenic call (Species/Cell Type: Salmonella typhimurium, Assay Type: Forward and reverse gene mutation, body fluid assay, Assay Code: BFU+, Evaluation Type: Evaluation A (Pre-1980)) read?
Answer: The mutagenic call was “active; positive”.

Question: For `O=C(COc1ccc(Br)cc1CN1CCOCC1)N/N=C/c1ccccc1`, which mutagenic call (Species/Cell Type: Saccharomyces cerevisiae, Assay Type: Reverse gene mutation, Assay Code: YERT, Evaluation Type: Evaluation A (Pre-1980)) is on record?
Answer: Its mutagenic call is “no conclusion”.

Question: With `CCc1ccccc1O` as the molecule, how does the mutagenic call (Species/Cell Type: Human lymphocytes, Assay Type: Sister-chromatid exchange (SCE) in vitro, Assay Code: SCLT, Evaluation Type: Evaluation B (Post-1980)) read?
Answer: The mutagenic call was “no conclusion”.

Question: What about the mutagenic call (Species/Cell Type: Human, Assay Type: Sister-chromatid exchange (SCE) in vitro, Assay Code: SC1T, Evaluation Type: Evaluation B (Post-1980)) of the same molecule?
Answer: Its mutagenic call is “no conclusion”.

Question: Which mutagenic call (Species/Cell Type: Chinese hamster lung (V79) cells, Assay Type: Forward gene mutation at the HPRT or ouabain locus, Assay Code: V79-*, Activation: With metabolic activation, Evaluation Type: Evaluation A (Pre-1980)) does the source give for `O[C@@H]1C=Cc2ccc3cc4ccccc4cc3c2[C@H]1O` here?
Answer: The mutagenic call was “inactive; negative”.

Question: What about the mutagenic call [6] of the same molecule?
Answer: The mutagenic call was “active; positive”.

Question: And the mutagenic call [7]?
Answer: The mutagenic call was “no conclusion”.

Question: With `c1ccc2cc3ccccc3cc2c1` as the molecule, how does the mutagenic call (Species/Cell Type: Escherichia coli polA (W3110 vs P3478), Assay Type: Rec-assay, DNA effects (bacterial DNA repair), Assay Code: RE2-, Evaluation Type: Evaluation A (Pre-1980)) read?
Answer: The mutagenic call was “inactive; negative”.

Question: And the mutagenic call (Species/Cell Type: Escherichia coli polA (W3119 vs P3478), Assay Type: Rec-assay, DNA effects (bacterial DNA repair), Assay Code: RE1T, Evaluation Type: Evaluation A (Pre-1980))?
Answer: The mutagenic call was “no conclusion”.

Question: What about the mutagenic call (Species/Cell Type: Fischer rat embryo (RLV/1706) cells, Assay Type: Cell transformation, viral enhanced, Assay Code: CTRT, Evaluation Type: Evaluation A (Pre-1980)) of the same molecule?
Answer: Its mutagenic call is “no conclusion”.

Question: And the mutagenic call (Species/Cell Type: Human diploid fibroblasts, Assay Type: Unscheduled DNA synthesis (UDS) in vitro, DNA effects, Assay Code: UDH-*, Activation: With metabolic activation, Evaluation Type: Evaluation A (Pre-1980))?
Answer: Its mutagenic call is “inactive; negative”.

Question: What about the mutagenic call (Species/Cell Type: Mammalian polychromatic erythrocytes, Assay Type: Micronucleus test, chromosome aberrations, Assay Code: MNTT, Evaluation Type: Evaluation A (Pre-1980)) of the same molecule?
Answer: Its mutagenic call is “no conclusion”.

Question: And the mutagenic call (Species/Cell Type: Mouse (BALB/c-3T3) cells, Assay Type: Cell transformation, Assay Code: CTB-, Evaluation Type: Evaluation A (Pre-1980))?
Answer: The mutagenic call was “inactive; negative”.

Question: What about the mutagenic call (Species/Cell Type: Mouse embryo (AKR/ME) cells, Assay Type: Cell transformation, Assay Code: CTK-, Evaluation Type: Evaluation A (Pre-1980)) of the same molecule?
Answer: Its mutagenic call is “inactive; negative”.

Question: And the mutagenic call (Species/Cell Type: Mouse, Sex: Male, Assay Type: Sperm morphology, Assay Code: SPI-, Evaluation Type: Evaluation A (Pre-1980))?
Answer: Its mutagenic call is “inactive; negative”.

Question: What about the mutagenic call (Species/Cell Type: Nonhuman, Assay Type: Chromosome aberrations in vitro, Assay Code: CY&-, Evaluation Type: Evaluation A (Pre-1980)) of the same molecule?
Answer: Its mutagenic call is “inactive; negative”.

Question: What about the call (Species/Cell Type: Nonhuman, Assay Code: CCGT, Evaluation Type: Evaluation A (Pre-1980)) of the same molecule?
Answer: Its call is “no conclusion”.

Question: What about the mutagenic call [6] of the same molecule?
Answer: The mutagenic call was “active; positive”.

Question: What about the mutagenic call (Species/Cell Type: Nonhuman, Assay Type: Sister-chromatid exchange (SCE) in vitro, Assay Code: SC2T, Evaluation Type: Evaluation A (Pre-1980)) of the same molecule?
Answer: Its mutagenic call is “no conclusion”.

Question: And the mutagenic call (Species/Cell Type: Nonhuman, Assay Type: Sister-chromatid exchange (SCE) in vivo, Assay Code: SC3-, Evaluation Type: Evaluation A (Pre-1980))?
Answer: Its mutagenic call is “inactive; negative”.

Question: And the mutagenic call (Species/Cell Type: Nonhuman, Assay Type: Sister-chromatid exchange (SCE) in vivo, Assay Code: SC3T, Evaluation Type: Evaluation B (Post-1980))?
Answer: Its mutagenic call is “no conclusion”.

Question: And the mutagenic call (Species/Cell Type: Rat primary hepatocytes, Assay Type: Unscheduled DNA synthesis (UDS) in vitro, DNA effects, Assay Code: UDP-, Evaluation Type: Evaluation A (Pre-1980))?
Answer: The mutagenic call was “inactive; negative”.

Question: And the mutagenic call [8]?
Answer: Its mutagenic call is “inactive; negative”.

Question: And the mutagenic call (Species/Cell Type: Salmonella typhimurium (one or more of the five standard strains: TA98, TA100, TA1535, TA1537, and TA1538), Assay Type: Histidine reverse gene mutation, Ames assay, Assay Code: SAL-, Evaluation Type: Evaluation A (Pre-1980))?
Answer: Its mutagenic call is “inactive; negative”.

Question: What about the mutagenic call (Species/Cell Type: Salmonella typhimurium, Assay Type: Forward and reverse gene mutation, host-mediated assay, Assay Code: HMAT, Evaluation Type: Evaluation A (Pre-1980)) of the same molecule?
Answer: Its mutagenic call is “no conclusion”.

Question: And the mutagenic call (Species/Cell Type: Syrian hamster embryo (SHE) cells, Assay Type: Cell transformation, clonal assay, Assay Code: CTC-, Evaluation Type: Evaluation A (Pre-1980))?
Answer: The mutagenic call was “inactive; negative”.

Question: With `O=P(N1CC1)(N1CC1)N1CCN(P(=O)(N2CC2)N2CC2)CC1` as the molecule, how does the mutagenic call [3] read?
Answer: The mutagenic call was “active; positive”.

Question: And the mutagenic call [4]?
Answer: The mutagenic call was “active; positive”.

Question: What about the mutagenic call [6] of the same molecule?
Answer: Its mutagenic call is “active; positive”.

Question: Which mutagenic call [8] does the source give for `CC1=C(O)C(=O)C(C2=C(O)C(=O)C(C)=C(O)C2=O)=C(O)C1=O` here?
Answer: The mutagenic call was “inactive; negative”.

Question: What about the mutagenic call [7] of the same molecule?
Answer: Its mutagenic call is “no conclusion”.

Question: For `Nc1ccc(Cl)cc1`, which mutagenic call [2] is on record?
Answer: Its mutagenic call is “active; positive”.

Question: What about the mutagenic call [8] of the same molecule?
Answer: The mutagenic call was “inactive; negative”.

Question: What about the mutagenic call (Species/Cell Type: Syrian hamster embryo (SHE) cells, Assay Type: Cell transformation, clonal assay, Assay Code: CTC+, Evaluation Type: Evaluation A (Pre-1980)) of the same molecule?
Answer: The mutagenic call was “active; positive”.

Question: How did the mutagenic call (Species/Cell Type: Salmonella typhimurium, Assay Type: Forward and reverse gene mutation, host-mediated assay, Assay Code: HMA-, Evaluation Type: Evaluation A (Pre-1980)) turn out when `C1CCNC1` was run?
Answer: Its mutagenic call is “inactive; negative”.

Question: How did the mutagenic call [1] turn out when `O=NN(CCCl)C(=O)NCCCO` was run?
Answer: Its mutagenic call is “active; positive”.

Question: What about the mutagenic call [5] of the same molecule?
Answer: Its mutagenic call is “active; positive”.

Question: `C[C@@H]1[C@H](O)[C@@H](C)/C=C/C=C/C=C/C=C/C=C/C=C/C=C/[C@H](O[C@@H]2O[C@H](C)[C@@H](O)[C@H](N)[C@@H]2O)C[C@@H]2O[C@](O)(C[C@@H](O)C[C@@H](O)[C@H](O)CC[C@@H](O)C[C@@H](O)CC(=O)O[C@H]1C)C[C@H](O)[C@H]2C(=O)O` was tested. Which mutagenic call (Species/Cell Type: Aspergillus nidulans, Assay Type: Aneuploidy, chromosome aberrations, Assay Code: ASN+, Evaluation Type: Evaluation A (Pre-1980)) did it give?
Answer: The mutagenic call was “active; positive”.

Question: With `[Cl][Ir-2]([Cl])([Cl])([Cl])([Cl])[Cl]` as the molecule, how does the mutagenic call (Species/Cell Type: Bacillus subtilis (H17 vs M45), Assay Type: Rec-assay, spot test, DNA effects (bacterial DNA repair), Assay Code: REW+, Evaluation Type: Evaluation A (Pre-1980)) read?
Answer: The mutagenic call was “active; positive”.

Question: How did the mutagenic call (Species/Cell Type: Mammalian polychromatic erythrocytes, Assay Type: Micronucleus test, chromosome aberrations, Assay Code: MNT+U, Dose Response: Unconfirmed positive response, Evaluation Type: Evaluation A (Pre-1980)) turn out when `CS(=O)(=O)OCCNP1(=O)OCCCN1CCCl` (centres undefined) was run?
Answer: Its mutagenic call is “active; positive”.
